# Assay results taken from PMC9385959, “Mammalian derived lipocalin and secretoglobin respiratory allergens strongly bind ligands with potentially immune modulating properties” (Frontiers in Allergy, 2022).
# Where “and” joins values, the source holds several entries; their conditions need not be identical. Identical values can stand only once. Like-named read-outs stand apart in the source and are kept apart here.
# Experiments:
# Can f 1 = biological target: T1, Can f 1 (Canis lupus familiaris, UniProt O18873); assay: Competitive fluorescence-quenching assay, Can f 1; assay type: binding, dog; conditions: for inhibition at 50 µM: read-out: Mean fluorescence inhibition
# T1 construct: made in house; host or cells: E. coli Rosetta-gami 2(DE3)
# Protocol: (§1) Fluorescence quenching assays were performed as previously described ([45]), with modifications. Fluorochromes and ligands were purchased from Sigma Aldrich (Steinheim, Germany), Carl Roth (Karlsruhe, Germany) and TCI Europe N.V. (Zwijndrecht, Belgium).
# (§2) Stock solutions were prepared at a concentration of 10 mM in 100% ethanol for the fluorochromes 1-aminoanthracene (1-AMA), 8-anilino-1-naphthalensulfonic acid (1,8-ANS) and for all ligands, and in 100% methanol for n-phenyl-1-naphthylamine (1-NPN), respectively. Iron catecholate ligands (siderophores) were prepared as previously described ([46]). Fluorochrome-protein complexes were analyzed at an equimolar concentration of 5 μM in PBS with 5% ethanol in a volume of 100 μL per well in black 96-well non-binding microplates (Greiner Bio-One GmbH, Frickenhausen, Germany). Solutions containing only protein or the respective fluorescent probe in PBS with 5% ethanol served as controls. Fluorochrome-protein complexes were incubated with orbital shaking for 10 min at 500 rpm at room temperature (RT) before measurement using the fluorescence reader TECAN Infinite 200 Pro (Tecan Trading AG, Switzerland). Excitation wavelengths were fixed at 380 nm for 1-AMA and 1,8-ANS, and 337 nm for 1-NPN. Fluorescence emission spectra were recorded in 5 nm steps between 420 and 560 nm for 1-AMA and 1,8-ANS and between 380 and 500 nm for 1-NPN. The establishment of fluorescent quenching assay parameters for each allergen is explained in the results Section Fluorescence-quenching assay set up. Binding affinities were analyzed by non-linear regression in GraphPad Prism Version 9.3.1 (GraphPad Software, LLC). For the ligand competition assays, ligands were added to fluorochrome-allergen complexes with a final buffer composition of 5% ethanol in PBS in a volume of 100 μL and incubated for 30 min at 500 rpm at RT and further equilibrated for another 30 min without shaking before fluorescence measurement.
# (§3) The binding affinities of non-fluorescent ligands is inferred to by their ability to compete and displace the fluorochromes bound to the allergen at a certain concentration. This leads to a measurable decrease in fluorescence intensity that will be expressed as fluorescence inhibition (Figure 6). For a given allergen, the ligand with the strongest inhibition has the highest binding affinity. […] Competitive ligand binding was analyzed by non-linear regression and inhibitory dissociation constants (Ki) were calculated.
# human LCN1 = biological target: T2, human LCN1 (Homo sapiens, UniProt P31025); assay: Competitive fluorescence-quenching assay, LCN1; assay type: binding; conditions: for Ki: 5 μM LCN1, fluorochrome 1,8-ANS, read-out: Ligand inhibition constant Ki
# T2 construct: made in house; host or cells: E. coli Rosetta-gami 2(DE3)
# Protocol: as §1, §2, §3
# Cav p 1.0101 = Cav p 1.0101 (Cavia porcellus, UniProt A0A484HM70, S19A); assay: Competitive fluorescence-quenching assay, Cav p 1.0101; assay type: binding, guinea pig; conditions: for Mean fluorescence inhibition / inhibition at 50 µM: 5 μM Cav p 1.0101-1-AMA complex, 50 μM ligand, n = 2
# Protocol: as §1, §2, §3
# Cav p 1.0201 = Cav p 1.0201 (Cavia porcellus, UniProt A0A484HRI4); assay: Competitive fluorescence-quenching assay, Cav p 1.0201; assay type: binding, guinea pig; conditions: for Mean fluorescence inhibition / inhibition at 50 µM: 5 μM Cav p 1.0201-1-AMA complex, 50 μM ligand, n = 2
# Protocol: as §1, §2, §3
# Ory c 3 = Ory c 3 (Oryctolagus cuniculus, UniProt Q9GK63+Q9GK67); assay: Competitive fluorescence-quenching assay, Ory c 3; assay type: binding, rabbit; conditions: for inhibition at 50 µM: read-out: Mean fluorescence inhibition
# Protocol: as §1, §2, §3
# Fel d 4 = biological target: T3, Fel d 4 (Felis catus, UniProt Q5VFH6); assay: Competitive fluorescence-quenching assay, Fel d 4; assay type: binding, cat; conditions: for inhibition at 100 µM: read-out: Mean fluorescence inhibition
# T3 construct: polyhistidine tag (C); made in house; host or cells: E. coli Rosetta-gami 2
# T3 sequence (Q5VFH6 16-186): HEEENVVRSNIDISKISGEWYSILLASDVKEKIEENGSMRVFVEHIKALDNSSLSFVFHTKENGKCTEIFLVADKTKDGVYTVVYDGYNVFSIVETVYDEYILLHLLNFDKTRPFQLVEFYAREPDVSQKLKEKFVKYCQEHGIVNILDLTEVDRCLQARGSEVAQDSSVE
# Protocol: as §1, §2, §3
# Can f 6 = biological target: T4, Can f 6 (Canis lupus familiaris, UniProt H2B3G5); assay: Competitive fluorescence-quenching assay, Can f 6; assay type: binding, dog; conditions: for inhibition at 100 µM: read-out: Mean fluorescence inhibition
# T4 construct: polyhistidine tag (C); made in house; host or cells: E. coli Rosetta-gami 2
# T4 sequence (H2B3G5 16-190): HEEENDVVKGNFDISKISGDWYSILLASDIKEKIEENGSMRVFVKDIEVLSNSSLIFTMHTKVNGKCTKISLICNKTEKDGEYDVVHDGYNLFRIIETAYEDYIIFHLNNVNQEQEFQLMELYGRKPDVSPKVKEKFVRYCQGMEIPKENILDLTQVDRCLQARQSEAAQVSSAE
# Protocol: as §1, §2, §3
# Ory c 2 = assay: Competitive fluorescence-quenching assay, Ory c 2; assay type: binding, rabbit; conditions: for Ki: 5 μM Ory c 2, fluorochrome 1-AMA, read-out: Ligand inhibition constant Ki; for Mean fluorescence inhibition: 5 μM Ory c 2-1-AMA complex, 50 μM ligand, n = 2
# Protocol: as §1, §2, §3
# Fel d 1 = biological target: T5, Fel d 1 (Felis catus, UniProt P30438+P30440); assay: Competitive fluorescence-quenching assay, Fel d 1; assay type: binding, cat; conditions: for Ki: Ligand inhibition constant Ki
# T5 construct: polyhistidine tag (C); made in house; host or cells: E. coli Rosetta-gami 2
# T5 sequence (P30438+P30440 with tags, fused parts or gaps): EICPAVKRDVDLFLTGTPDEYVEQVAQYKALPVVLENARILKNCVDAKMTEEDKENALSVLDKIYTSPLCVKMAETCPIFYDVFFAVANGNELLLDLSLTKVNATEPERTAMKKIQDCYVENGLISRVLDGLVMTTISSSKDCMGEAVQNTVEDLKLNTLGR
# Protocol: as §1, §2, §3
# [1] = 5 μM LCN1-1,8-ANS complex, 50 μM ligand, n = 2
# [2] = 5 μM Ory c 3-1-AMA complex, 50 μM ligand, n = 2
# [3] = 5 μM Can f 1-1,8-ANS complex, 50 μM ligand, n = 2
# [4] = 5 μM Fel d 1 + 1,8-ANS complex, 100 μM ligand, read-out: Mean fluorescence inhibition
# [5] = read-out: Mean fluorescence inhibition, 5 μM Fel d 1 + 1,8-ANS complex, 100 μM ligand
# [6] = read-out: Mean fluorescence inhibition, 5 μM Fel d 1 + 1-NPN complex, 100 μM ligand
# [7] = 5 μM Fel d 4-1-NPN complex, 100 μM ligand
# [8] = 5 μM Can f 6-1-NPN complex, 100 μM ligand, high standard error
compound,measurement,setting,value
"CCCCC/C=C\C/C=C\C/C=C\C/C=C\CCCC(=O)O [Arachidonic acid, arachidonic acid]",Ki,Can f 1,1300 nM
same,inhibition at 50 µM,Can f 1,86.4%
same,Ki,human LCN1,1900 nM
same,inhibition at 50 µM,human LCN1; [1],96.7%
monophosphoryl lipid A [MPLA],Mean fluorescence inhibition,Cav p 1.0101,more than half
same,Mean fluorescence inhibition,Cav p 1.0201,more than half
same,Mean fluorescence inhibition,Ory c 3; [2],more than half
"CCCCCCCCCCCCCCC(=O)O [Pentadecanoic acid, pentadecanoic acid]",inhibition at 50 µM,Can f 1,41.4%
same,inhibition at 50 µM,human LCN1; [1],88.7%
"C[C@]12CC[C@H]3[C@@H](CCC4=CC(=O)CC[C@@]43C)[C@@H]1CC[C@@H]2O [Testosterone, testosterone]",Mean fluorescence inhibition,Cav p 1.0101,not observed
same,Mean fluorescence inhibition,Cav p 1.0201,not observed
same,inhibition at 100 µM,Fel d 4,92.2%
same,inhibition at 100 µM,Can f 6,43.7%
"CC(C)=CCC/C(C)=C/CC/C(C)=C/CO [Farnesol, farnesol]",inhibition at 50 µM,Can f 1; [3],43.1%
same,inhibition at 50 µM,human LCN1; [1],90.9%
same,inhibition at 50 µM,Cav p 1.0101,98.9%
same,Ki,"Cav p 1.0101; Ki (printed in Figure 6D), Cav p 1.0101, titration 0–60 μM ligand, unit inferred",580 nM
same,Ki,"Cav p 1.0101; Ligand inhibition constant Ki, 5 μM Cav p 1.0101, fluorochrome 1-AMA",600 nM
same,Ki,"Cav p 1.0201; 5 μM Cav p 1.0201, fluorochrome 1-AMA, read-out: Ligand inhibition constant Ki",600 nM
same,inhibition at 50 µM,Cav p 1.0201,95.5%
same,Ki,Ory c 2,1100 nM
same,Mean fluorescence inhibition,Ory c 2,96.0%
same,inhibition at 50 µM,Ory c 3; [2],91.3%
same,inhibition at 100 µM,Fel d 1; [4],11.2%
Lipopolysaccharide,Mean fluorescence inhibition,Can f 1; [3],57.4%
same,Mean fluorescence inhibition,human LCN1; [1],81% and 81.2%
"CCCc1ccc(O)cc1 [4-Propylphenol, 4-propylphenol]",inhibition at 50 µM,Cav p 1.0101,65.7%
same,inhibition at 50 µM,Cav p 1.0201,57%
same,Ki,Ory c 2,2600 nM
same,Mean fluorescence inhibition,Ory c 2,93.2%
same,inhibition at 50 µM,Ory c 3; [2],93.2%
same,inhibition at 100 µM,Fel d 1; [5],52.8%
same,inhibition at 100 µM,Fel d 1; [6],65.3%
"CC(C)CCCC(C)CCO (stereo not drawn) [3,7-dimethyl-1-octanol]",inhibition at 50 µM,Cav p 1.0101,96.4%
same,inhibition at 50 µM,Cav p 1.0201,80.3%
same,Mean fluorescence inhibition,Ory c 2,72.5%
same,inhibition at 50 µM,Ory c 3; [2],91.1%
same,inhibition at 100 µM,Fel d 1; [4],58.3%
same,inhibition at 100 µM,"Fel d 1; 5 μM Fel d 1 + 1-NPN complex, 100 μM ligand, read-out: Mean fluorescence inhibition",85.4%
same,inhibition at 100 µM,Fel d 4; [7],89.5%
same,inhibition at 100 µM,Can f 6; [8],100%
"CCCCCCCCCCCCCC(=O)O [Tetradecanoic acid, tetradecanoic acid]",Ki,"Can f 1; 5 μM Can f 1, fluorochrome 1,8-ANS, read-out: Ligand inhibition constant Ki",7400 nM
same,inhibition at 50 µM,Can f 1,60.8%
same,Ki,human LCN1,1800 nM
same,inhibition at 50 µM,human LCN1; [1],91.9%
"COc1nccnc1CC(C)C [IBMP, 2-isobutyl-3-methoxypyrazine]",Ki,"Fel d 4; 5 μM Fel d 4, fluorochrome 1-NPN, to be interpreted with caution, imprecise Ki values, read-out: Ligand inhibition constant Ki",39200 nM
same,inhibition at 100 µM,Fel d 4; [7],96.8%
same,Ki,"Can f 6; 5 μM Can f 6, fluorochrome 1-NPN, to be interpreted with caution, imprecise Ki values, read-out: Ligand inhibition constant Ki",49600 nM
same,inhibition at 100 µM,Can f 6; [8],118%
"CCCCCCCCCCCC(=O)O [Dodecanoic acid, dodecanoic acid]",inhibition at 50 µM,Ory c 3,76.2%
same,Ki,"Fel d 1; 5 μM Fel d 1, fluorochrome 1,8-ANS",26700 nM
same,Ki,"Fel d 1; 5 μM Fel d 1, fluorochrome 1-NPN",14400 nM
same,inhibition at 100 µM,Fel d 1; [5],75.2%
same,inhibition at 100 µM,Fel d 1; [6],91.7%
"CCCCCCCCCC(=O)O [Decanoic acid, decanoic acid]",inhibition at 50 µM,Ory c 3; [2],76.1%
same,inhibition at 100 µM,Fel d 1; [5],71.2%
same,inhibition at 100 µM,Fel d 1; [6],101%
